Laboratory results: the supplement of paper PMC11061612

What was measured:
Experiment in all cases: combination Emax (second highest fraction inhibited in the dose matrix, 72 h); higher = more inhibition; extreme values may be limits of the assay
[1] = tested on: CAL-27 (Oral Cavity Carcinoma)
Procedure, shortened: (§1)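 Bliss excess equals the observed combination effect minus the expected value EA + EB − EA·EB, where EA and EB are the effects of each agent alone. Combination Emax is the second-highest inhibition within the matrix. Inhibition was scaled from CellTiter-Glo 2.0 luminescence, with 0 set by vehicle wells and 1 by blank wells, after 72 hours of two-drug dosing of cells plated in 1536-well plates.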

[2] = tested on: Jurkat (T-Lymphoblastic Leukemia)
Procedure, shortened: as §1

EB2 (Burkitt's Lymphoma) = tested on: EB2 (Burkitt's Lymphoma)
Procedure, shortened: as §1

EW-16 (Ewing's Sarcoma) = tested on: EW-16 (Ewing's Sarcoma)
Procedure, shortened: as §1

[3] = tested on: HCC1428 (Breast Carcinoma)
Procedure, shortened: as §1

[4] = tested on: DU-4475 (Breast Carcinoma)
Procedure, shortened: as §1

769-P (Kidney Carcinoma) = tested on: 769-P (Kidney Carcinoma)
Procedure, shortened: as §1

[5] = tested on: EPLC-272H (Other Solid Carcinomas)
Procedure, shortened: as §1

[6] = tested on: G-402 (Other Solid Carcinomas)
Procedure, shortened: as §1

5637 (Bladder Carcinoma) = tested on: 5637 (Bladder Carcinoma)
Procedure, shortened: as §1

PEO1 (Ovarian Carcinoma) = tested on: PEO1 (Ovarian Carcinoma)
Procedure, shortened: as §1

[7] = tested on: MHH-ES-1 (Ewing's Sarcoma)
Procedure, shortened: as §1

WM1552C (Melanoma) = tested on: WM1552C (Melanoma)
Procedure, shortened: as §1

RH-41 (Rhabdomyosarcoma) = tested on: RH-41 (Rhabdomyosarcoma)
Procedure, shortened: as §1

[8] = tested on: KYSE-140 (Esophageal Squamous Cell Carcinoma)
Procedure, shortened: as §1

[9] = tested on: OACp4C (Esophageal Adenocarcinoma)
Procedure, shortened: as §1

[10] = tested on: LU-165 (Small Cell Lung Carcinoma)
Procedure, shortened: as §1

[11] = tested on: A2780 (Ovarian Carcinoma)
Procedure, shortened: as §1

[12] = tested on: A253 (Head and Neck Carcinoma)
Procedure, shortened: as §1

[13] = tested on: SK-HEP-1 (Hepatocellular Carcinoma)
Procedure, shortened: as §1

| Structure (SMILES) | combination Emax [1] | combination Emax [2] | combination Emax (EB2 (Burkitt's Lymphoma)) | combination Emax (EW-16 (Ewing's Sarcoma)) | combination Emax [3] | combination Emax [4] | combination Emax (769-P (Kidney Carcinoma)) | combination Emax [5] | combination Emax [6] | combination Emax (5637 (Bladder Carcinoma)) | combination Emax (PEO1 (Ovarian Carcinoma)) | combination Emax [7] | combination Emax (WM1552C (Melanoma)) | combination Emax (RH-41 (Rhabdomyosarcoma)) | combination Emax [8] | combination Emax [9] | combination Emax [10] | combination Emax [11] | combination Emax [12] | combination Emax [13] |
| --- | --- | --- | --- | --- | --- | --- | --- | --- | --- | --- | --- | --- | --- | --- | --- | --- | --- | --- | --- | --- |
| Cc1c2c(nn1C)CSCc1cc(n(C)n1)CSc1cc(c3ccccc3c1)OCCCc1c(C(=O)O)n(C)c3c-2c(Cl)ccc13 [AZD5991] + C=CCn1c(=O)c2cnc(Nc3ccc(N4CCN(C)CC4)cc3)nc2n1-c1cccc(C(C)(C)O)n1 [AZD1775] (first compound max 1 µM, partner max 1 µM) | 0.972 | 0.972 | 0.769 | 0.507 | 0.97 | 0.977 | 0.858 | 0.971 | 0.965 | 0.954 | 0.397 | 0.87 | 0.779 | 1 | 0.905 | 0.951 | 0.441 | 0.858 | 0.904 | 0.35 |
| CC(=O)c1c(C)c2cnc(Nc3ccc(N4CCNCC4)cn3)nc2n(C2CCCC2)c1=O [Palbociclib] + Cc1c2c(nn1C)CSCc1cc(n(C)n1)CSc1cc(c3ccccc3c1)OCCCc1c(C(=O)O)n(C)c3c-2c(Cl)ccc13 [AZD5991] (first compound max 10 µM, 7x7, partner max 1 µM) | 0.914 | 0.883 | 0.518 | 0.415 | 0.952 | 0.231 | 0.786 | 0.822 | 0.839 | 0.197 | 0.329 | 0.622 | 0.638 | 0.911 | 0.301 | 0.46 | 0.167 | 0.912 | 0.635 | 0.848 |
| CCc1c2c(nc3ccc(O)cc13)-c1cc3c(c(=O)n1C2)COC(=O)[C@]3(O)CC [SN-38] + CN(C)CCCOc1ccc(-c2ccc3ncc4c(c3c2)n(C2CCOCC2)c(=O)n4C)cn1 [AZD0156] (first compound max 0.3 µM, 7x7, partner max 1 µM) | 0.905 | 0.999 | 0.948 | 0.978 | 0.123 | 0.95 | 0.716 | 0.755 | 0.745 | 0.802 | 0.674 | 1 | 0.59 | 0.719 | 0.305 | 0.714 | 0.517 | 0.726 | 0.881 | 0.63 |
| C[C@@H]1COCCN1c1cc(C2([S@](C)(=N)=O)CC2)nc(-c2ccnc3[nH]ccc23)n1 [AZD6738] + O=C(c1cc(Cc2n[nH]c(=O)c3ccccc23)ccc1F)N1CCN(C(=O)C2CC2)CC1 [Olaparib] (first compound max 10 µM, 7x7, partner max 10 µM) | 0.793 | 0.965 | 0.813 | 0.808 | 0.261 | 0.975 | 0.756 | 0.824 | 0.627 | 0.726 | 0.585 | 0.868 | 0.679 | 0.808 | 0.744 | 0.71 | 0.309 | 0.832 | 0.806 | 0.498 |
| CC1(C)CCC(CN2CCN(c3ccc(C(=O)NS(=O)(=O)c4ccc(NCC5CCOCC5)c([N+](=O)[O-])c4)c(Oc4cnc5[nH]ccc5c4)c3)CC2)=C(c2ccc(Cl)cc2)C1 [Venetoclax] + C1CN(CCC1(C(=O)N[C@@H](CCO)C2=CC=C(C=C2)Cl)N)C3=NC=NC4=C3C=CN4 [Capivasertib] (first compound max 1 µM, 7x7, partner max 3 µM) | 0.261 | 0.639 | 0.795 | 0.236 | 0.119 | 0.246 | 0.241 | 0.562 | 0.425 | 0.168 | 0.19 | 0.323 | 0.469 | 0.945 | 0.669 | 0.634 | 0.269 | 0.61 | 0.463 | 0.168 |
| Cc1c2c(nn1C)CSCc1cc(n(C)n1)CSc1cc(c3ccccc3c1)OCCCc1c(C(=O)O)n(C)c3c-2c(Cl)ccc13 [AZD5991] + CN(C)CCCOc1ccc(-c2ccc3ncc4c(c3c2)n(C2CCOCC2)c(=O)n4C)cn1 [AZD0156] (first compound max 1 µM, 7x7, partner max 1 µM) | 0.958 | 0.928 | 0.42 | 0.29 | 0.961 | 0.244 | 0.243 | 0.936 | 0.965 | 0.216 | 0.15 | 0.652 | 0.76 | 1 | 0.488 | 0.469 | 0.286 | 0.682 | 0.908 | 0.281 |
| CCN(CCO)CCCOc1ccc2c(Nc3cc(CC(=O)Nc4cccc(F)c4)[nH]n3)ncnc2c1 [AZD2811] + C[C@@H]1COCCN1C2=NC(=NC(=C2)C3(CC3)[S@](=N)(=O)C)C4=C5C=CNC5=NC=C4 [AZD6738] (first compound max 1 µM, 7x7, partner max 10 µM) | 0.515 | 0.865 | 0.746 | 0.758 | 0.172 | 0.944 | 0.85 | 0.849 | 0.606 | 0.827 | 0.553 | 0.685 | 0.642 | 0.706 | 0.92 | 0.733 | 0.38 | 0.815 | 0.756 | 0.42 |
